Ends that are not written are not given here.

The test system of assay [1] is S. mutans from 1 representative S-ECC child. Description: Inhibition of S. mutans clinical isolate by plantaricin (MIC). The assay is classed as cell-based, Streptococcus mutans. The following applies: clear culture plated, additional 48 hours. As for the experimental part:
(§1) Bacteriocins, antimicrobial molecules, produced by L. plantarum are known as plantaricins. Peptide plantaricin-149 (acetate) powers (Creative Peptides, Shirley, USA) were dissolved in ddH2O to prepare plantaricin solutions. S. mutans (3.6×10^3 CFU/ml) and C. albicans (3.1×10^1 CFU/ml) from 1 representative S-ECC child were selected and treated with the plantaricin with a range of concentration (0-400 μg/ml). The mixtures of plantaricin with S. mutans or C. albicans were grown for 24 hours in TSBYE with 1% glucose in 96-well plates. Clear culture after 24 hours' incubation indicated no growth of microorganisms. Therefore, the minimal inhibition concentration (MIC) of plantaricin-149 was defined as the lowest concentration that inhibited the growth of S. mutans and C. albicans.
(§2) S. mutans (3.6×10^3 CFU/ml) and C. albicans (3.1×10^1 CFU/ml) were treated by the plantaricin ranging from 0-400 ng/ml respectively, and grew for 24 h in 1% glucose condition. The MIC of plantaricin was 400 ng/ml for S. mutans and 200 ng/ml for C. albicans. The clear culture was plated and incubated for additional 48 hours.

The subject of assay [2] is C. albicans from 1 representative S-ECC child. Description: Inhibition of C. albicans clinical isolate by plantaricin (MIC). The following applies: clear culture plated, additional 48 hours. Format: cell-based, Candida albicans. As for the experimental part: as §1, §2

For YSLQMGATAIKQVKKLFKKKGG [plantaricin], the “nature of inhibitory effect on S. mutans” value in assay [1] is “bacteriostatic”. In addition, the “nature of inhibitory effect on C. albicans” value in assay [2] is listed as “fungistatic”.

Values taken from patent publication US20250082700A1, “METHODS AND COMPOSITIONS OF TREATING BIOLFILM-RELATED DISEASES” (UNIVERSITY OF ROCHESTER, priority 2022, published 2025).
